Measurements taken from PMC4471549 (Angewandte Chemie (International Ed. in English), 2015).

Experiments:
STAT5b (SH2 domain) = target: T1, STAT5b (SH2 domain) (Homo sapiens, UniProt P51692); assay: competitive fluorescence polarization assay; type: binding
T1 sequence (P51692 1-787 limits assumed): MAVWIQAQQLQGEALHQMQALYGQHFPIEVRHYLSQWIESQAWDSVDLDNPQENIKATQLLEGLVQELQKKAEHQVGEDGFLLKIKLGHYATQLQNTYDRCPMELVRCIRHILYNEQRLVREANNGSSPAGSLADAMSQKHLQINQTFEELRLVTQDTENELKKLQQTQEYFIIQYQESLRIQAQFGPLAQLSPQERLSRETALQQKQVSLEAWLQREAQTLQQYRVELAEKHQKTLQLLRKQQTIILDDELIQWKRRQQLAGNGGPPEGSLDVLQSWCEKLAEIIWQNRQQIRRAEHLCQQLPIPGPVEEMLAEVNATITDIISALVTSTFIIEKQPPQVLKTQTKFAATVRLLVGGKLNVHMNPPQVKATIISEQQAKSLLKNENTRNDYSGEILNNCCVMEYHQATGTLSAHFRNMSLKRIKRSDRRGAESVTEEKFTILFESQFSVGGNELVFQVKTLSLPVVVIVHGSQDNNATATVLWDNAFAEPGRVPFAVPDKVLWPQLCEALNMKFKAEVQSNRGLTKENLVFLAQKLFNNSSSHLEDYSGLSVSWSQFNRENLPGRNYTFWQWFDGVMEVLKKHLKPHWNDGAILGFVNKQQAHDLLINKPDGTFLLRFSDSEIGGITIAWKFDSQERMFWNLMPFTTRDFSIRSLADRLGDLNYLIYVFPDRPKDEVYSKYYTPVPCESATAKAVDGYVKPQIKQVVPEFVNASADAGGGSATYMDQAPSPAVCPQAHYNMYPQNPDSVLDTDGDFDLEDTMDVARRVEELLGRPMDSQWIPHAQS

STAT5a (SH2 domain) = target: T2, STAT5a (SH2 domain) (Homo sapiens, UniProt P42229); assay: competitive fluorescence polarization assay; type: binding
T2 sequence (P42229 1-794): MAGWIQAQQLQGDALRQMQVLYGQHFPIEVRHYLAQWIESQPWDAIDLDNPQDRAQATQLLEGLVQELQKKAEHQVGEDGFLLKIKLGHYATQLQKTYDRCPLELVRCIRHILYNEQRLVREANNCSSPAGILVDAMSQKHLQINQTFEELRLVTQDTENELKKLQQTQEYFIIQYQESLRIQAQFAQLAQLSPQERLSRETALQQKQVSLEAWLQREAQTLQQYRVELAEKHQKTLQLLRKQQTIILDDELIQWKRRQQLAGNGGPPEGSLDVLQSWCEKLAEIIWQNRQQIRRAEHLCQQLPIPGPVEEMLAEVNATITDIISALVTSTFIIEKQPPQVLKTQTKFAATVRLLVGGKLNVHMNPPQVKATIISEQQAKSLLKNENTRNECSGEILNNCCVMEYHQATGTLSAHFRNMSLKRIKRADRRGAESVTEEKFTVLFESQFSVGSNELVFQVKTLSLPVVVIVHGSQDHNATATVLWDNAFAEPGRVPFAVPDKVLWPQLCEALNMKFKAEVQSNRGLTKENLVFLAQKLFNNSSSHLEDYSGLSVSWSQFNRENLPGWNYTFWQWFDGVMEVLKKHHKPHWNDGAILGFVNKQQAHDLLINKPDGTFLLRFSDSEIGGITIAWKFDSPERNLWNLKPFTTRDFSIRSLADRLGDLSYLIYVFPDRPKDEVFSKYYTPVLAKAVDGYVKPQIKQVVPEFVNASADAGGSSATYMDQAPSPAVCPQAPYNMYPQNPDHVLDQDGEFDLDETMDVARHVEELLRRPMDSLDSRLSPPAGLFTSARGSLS

Compound | Ki (STAT5b (SH2 domain)) [µM] | Ki (STAT5a (SH2 domain)) [µM]
O=C(NCCc1ccc(OP(=O)(O)O)c(OP(=O)(O)O)c1)OCC1c2ccccc2-c2ccccc21 [compound 7, Fmoc-protected dopamine bisphosphate] | 0.45 ± 0.04 | 16 ± 0.8
COC(=O)[C@H](Cc1ccc(OP(=O)(O)O)c(OP(=O)(O)O)c1)NC(=O)OCC1c2ccccc2-c2ccccc21 [compound 8, Fmoc-protected L-Dopa methyl ester bisphosphate] | 0.46 ± 0.08 | 7.8 ± 1
